{"source": "patent US20240109972A1", "about": "“ANTIBODY AND TAXANE COMBINATION THERAPY” (Genmab A/S, priority 2020, published 2024)", "tested_on": "solid malignant tumors", "experiment": "GEN1046 Phase I dose escalation (NCT03917381), response by RECIST v1.1", "format": "in vivo, human", "conditions": "for BOR Stable Disease, (percent) / BOR Stable Disease, patients / BOR Complete Response, (percent) / BOR Complete Response, patients / BOR Progressive Disease, (percent) / BOR Progressive Disease, patients / BOR Partial Response, (percent) / BOR Partial Response, patients: 3 Feb. 2020", "description": "The resistance to, failure to respond to and/or relapse from treatment with a binding agent of the invention and/or other therapeutic agent(s) may be determined according to the Response Evaluation Criteria In Solid Tumors; version 1.1 (RECIST Criteria v1.1).\nThe “best overall response” is the best response recorded from the start of the treatment until disease progression/recurrence (the smallest measurements recorded since the treatment started will be used as the reference for PD). Subjects with CR or PR are considered to be objective response. Subjects with CR, PR or SD are considered to be in disease control. Subjects with NE are counted as non-responders. […]\nClinical trial on GCT1046-01 (ClinicalTrials.gov Identifier: NCT03917381) was designed as a two-part trial, including an ongoing dose escalation part and a planned expansion part.\nThe trial consists of 2 parts; a First-in-Human (FIH) dose escalation (Phase I) and an expansion (Phase 11a).\nFor dose escalation, subject was required to be a man or […] and was required to have measurable disease according to RECIST 1.1."}
{"substance": "GEN1046: PD-L1×4-1BB bispecific antibody: PD-L1-547-FEAL combined with CD137-009-HC7LC2-FEAR (SEQ ID NOs: 1, 5, 21, 19; 8, 12, 22, 20)", "values": [{"measurement": "BOR Stable Disease, (percent)", "setting": "140 mg (n = 1)", "result": "(0)"}, {"measurement": "BOR Stable Disease, patients", "setting": "140 mg (n = 1)", "result": 0}, {"measurement": "CR (Complete Response), patients", "setting": "200 mg (N 9), Oct. 12, 2020", "result": 0}, {"measurement": "Confirmed CR (Complete Response), patients", "setting": "200 mg (N 9), Oct. 12, 2020", "result": 0}, {"measurement": "Confirmed Disease Control (PR + PR + SD) Rate, %", "setting": "200 mg (N 9), Oct. 12, 2020", "result": 66.7, "unit": "%"}, {"measurement": "Confirmed Disease Control (PR + PR + SD) Rate, patients", "setting": "200 mg (N 9), Oct. 12, 2020", "result": 6}, {"measurement": "Confirmed NE (Not Evaluable), % of patients", "setting": "200 mg (N 9), Oct. 12, 2020", "result": 11.1, "unit": "%"}, {"measurement": "Confirmed NE (Not Evaluable), patients", "setting": "200 mg (N 9), Oct. 12, 2020", "result": 1}, {"measurement": "Confirmed Objective Response (CR + PR) Rate, patients", "setting": "200 mg (N 9), Oct. 12, 2020", "result": 0}, {"measurement": "Confirmed PD (Progressive Disease), % of patients", "setting": "200 mg (N 9), Oct. 12, 2020", "result": 22.2, "unit": "%"}, {"measurement": "Confirmed PD (Progressive Disease), patients", "setting": "200 mg (N 9), Oct. 12, 2020", "result": 2}, {"measurement": "Confirmed PR (Partial Response), patients", "setting": "200 mg (N 9), Oct. 12, 2020", "result": 0}, {"measurement": "Confirmed SD (Stable Disease), % of patients", "setting": "200 mg (N 9), Oct. 12, 2020", "result": 66.7, "unit": "%"}, {"measurement": "Confirmed SD (Stable Disease), patients", "setting": "200 mg (N 9), Oct. 12, 2020", "result": 6}, {"measurement": "Disease Control (PR + PR + SD) Rate, %", "setting": "200 mg (N 9), Oct. 12, 2020", "result": 66.7, "unit": "%"}, {"measurement": "Disease Control (PR + PR + SD) Rate, patients", "setting": "200 mg (N 9), Oct. 12, 2020", "result": 6}, {"measurement": "NE (Not Evaluable), % of patients", "setting": "200 mg (N 9), Oct. 12, 2020", "result": 11.1, "unit": "%"}, {"measurement": "NE (Not Evaluable), patients", "setting": "200 mg (N 9), Oct. 12, 2020", "result": 1}, {"measurement": "Objective Response (CR + PR) Rate, %", "setting": "200 mg (N 9), Oct. 12, 2020", "result": 11.1, "unit": "%"}, {"measurement": "Objective Response (CR + PR) Rate, patients", "setting": "200 mg (N 9), Oct. 12, 2020", "result": 1}, {"measurement": "PD (Progressive Disease), % of patients", "setting": "200 mg (N 9), Oct. 12, 2020", "result": 22.2, "unit": "%"}, {"measurement": "PD (Progressive Disease), patients", "setting": "200 mg (N 9), Oct. 12, 2020", "result": 2}, {"measurement": "PR (Partial Response), % of patients", "setting": "200 mg (N 9), Oct. 12, 2020", "result": 11.1, "unit": "%"}, {"measurement": "PR (Partial Response), patients", "setting": "200 mg (N 9), Oct. 12, 2020", "result": 1}, {"measurement": "BOR Complete Response, (percent)", "setting": "200 mg (n = 8)", "result": "(0)"}, {"measurement": "BOR Complete Response, patients", "setting": "200 mg (n = 8)", "result": 0}, {"measurement": "BOR Progressive Disease, (percent)", "setting": "200 mg (n = 8)", "result": "(25)"}, {"measurement": "BOR Progressive Disease, patients", "setting": "200 mg (n = 8)", "result": 2}, {"measurement": "BOR Stable Disease, (percent)", "setting": "200 mg (n = 8)", "result": "(62.5)"}, {"measurement": "BOR Stable Disease, patients", "setting": "200 mg (n = 8)", "result": 5}, {"measurement": "BOR Partial Response, (percent)", "setting": "200 mg (n = 8), uPR", "result": "(12.5)"}, {"measurement": "BOR Partial Response, patients", "setting": "200 mg (n = 8), uPR", "result": "1^1"}, {"measurement": "CR (Complete Response), patients", "setting": "400 mg (N 9), Oct. 12, 2020", "result": 0}, {"measurement": "Confirmed CR (Complete Response), patients", "setting": "400 mg (N 9), Oct. 12, 2020", "result": 0}, {"measurement": "Confirmed Disease Control (PR + PR + SD) Rate, %", "setting": "400 mg (N 9), Oct. 12, 2020", "result": 77.8, "unit": "%"}, {"measurement": "Confirmed Disease Control (PR + PR + SD) Rate, patients", "setting": "400 mg (N 9), Oct. 12, 2020", "result": 7}, {"measurement": "Confirmed NE (Not Evaluable), patients", "setting": "400 mg (N 9), Oct. 12, 2020", "result": 0}, {"measurement": "Confirmed Objective Response (CR + PR) Rate, patients", "setting": "400 mg (N 9), Oct. 12, 2020", "result": 0}, {"measurement": "Confirmed PD (Progressive Disease), % of patients", "setting": "400 mg (N 9), Oct. 12, 2020", "result": 22.2, "unit": "%"}, {"measurement": "Confirmed PD (Progressive Disease), patients", "setting": "400 mg (N 9), Oct. 12, 2020", "result": 2}, {"measurement": "Confirmed PR (Partial Response), patients", "setting": "400 mg (N 9), Oct. 12, 2020", "result": 0}, {"measurement": "Confirmed SD (Stable Disease), % of patients", "setting": "400 mg (N 9), Oct. 12, 2020", "result": 77.8, "unit": "%"}, {"measurement": "Confirmed SD (Stable Disease), patients", "setting": "400 mg (N 9), Oct. 12, 2020", "result": 7}, {"measurement": "Disease Control (PR + PR + SD) Rate, %", "setting": "400 mg (N 9), Oct. 12, 2020", "result": 77.8, "unit": "%"}, {"measurement": "Disease Control (PR + PR + SD) Rate, patients", "setting": "400 mg (N 9), Oct. 12, 2020", "result": 7}, {"measurement": "NE (Not Evaluable), patients", "setting": "400 mg (N 9), Oct. 12, 2020", "result": 0}, {"measurement": "Objective Response (CR + PR) Rate, patients", "setting": "400 mg (N 9), Oct. 12, 2020", "result": 0}, {"measurement": "PD (Progressive Disease), % of patients", "setting": "400 mg (N 9), Oct. 12, 2020", "result": 22.2, "unit": "%"}, {"measurement": "PD (Progressive Disease), patients", "setting": "400 mg (N 9), Oct. 12, 2020", "result": 2}, {"measurement": "PR (Partial Response), patients", "setting": "400 mg (N 9), Oct. 12, 2020", "result": 0}, {"measurement": "BOR Complete Response, (percent)", "setting": "400 mg (n = 6)", "result": "(0)"}, {"measurement": "BOR Complete Response, patients", "setting": "400 mg (n = 6)", "result": 0}, {"measurement": "BOR Partial Response, (percent)", "setting": "400 mg (n = 6)", "result": "(0)"}, {"measurement": "BOR Partial Response, patients", "setting": "400 mg (n = 6)", "result": 0}, {"measurement": "BOR Progressive Disease, (percent)", "setting": "400 mg (n = 6)", "result": "(0)"}, {"measurement": "BOR Progressive Disease, patients", "setting": "400 mg (n = 6)", "result": 0}, {"measurement": "BOR Stable Disease, (percent)", "setting": "400 mg (n = 6)", "result": "(100)"}, {"measurement": "BOR Stable Disease, patients", "setting": "400 mg (n = 6)", "result": 6}, {"measurement": "CR (Complete Response), patients", "setting": "800 mg (N 9), Oct. 12, 2020", "result": 0}, {"measurement": "Confirmed CR (Complete Response), patients", "setting": "800 mg (N 9), Oct. 12, 2020", "result": 0}, {"measurement": "Confirmed Disease Control (PR + PR + SD) Rate, %", "setting": "800 mg (N 9), Oct. 12, 2020", "result": 55.6, "unit": "%"}, {"measurement": "Confirmed Disease Control (PR + PR + SD) Rate, patients", "setting": "800 mg (N 9), Oct. 12, 2020", "result": 5}, {"measurement": "Confirmed NE (Not Evaluable), % of patients", "setting": "800 mg (N 9), Oct. 12, 2020", "result": 22.2, "unit": "%"}, {"measurement": "Confirmed NE (Not Evaluable), patients", "setting": "800 mg (N 9), Oct. 12, 2020", "result": 2}, {"measurement": "Confirmed Objective Response (CR + PR) Rate, patients", "setting": "800 mg (N 9), Oct. 12, 2020", "result": 0}, {"measurement": "Confirmed PD (Progressive Disease), % of patients", "setting": "800 mg (N 9), Oct. 12, 2020", "result": 22.2, "unit": "%"}]}
